In brackets after ≈: the same amount, converted by molar mass.
Assays:
[1] = test system: C. albicans systemic infection; experiment: Systemic candidiasis mouse model; type: in vivo, mice; settings: for lung histopathology (H&E): vs non-treated infected mice; for serum levels of ALT, AST, uric acid, and creatinine: systemic candidiasis, day 7, compared with infected nontreated group (combination: also vs noninfected control)
Procedure: (§1) Four-week-old mice were obtained from Kafrelshikh university animal sourcing. Food and water were given ad libitum. The mice were handled according to the instructions and regulations of the ethics committee.
(§2) To help in the induction of fungal infection, mice were immunocompromised by Endoxan® (cyclophosphamide), injected i.v. at a dose rate of 100 mg/kg. The injection of cyclophosphamide was at three and one days before infection. Systemic candidiasis and aspergillosis were induced by intravenous injection of 0.2 ml of each cell suspension into the tail vein using 1-ml syringe and a 27-G, ½-in. needle. The C. albicans cells and Aspergillus conidia were obtained as described above. After plating, the cells were suspended in sterile saline. Each mouse received 5×10^4 blastospores. All drugs were given at a dose rate of 5 mg/kg via the oral route suspended in methylcellulose. […] Treatment was continued daily for seven days. On the seventh day, the mice were sacrificed, and blood and tissue samples were collected. Tissue samples from liver, kidney, lungs, and heart were stored in 10% formalin and fixed for histopathological and immunohistochemical examination.
(§3) Standard histopathological sections stained with hematoxylin and eosin were performed. Immunohistochemistry was performed following the instructions of the antibodies manufacturer (Theiino Scientific, Waltman, MA, USA). The antibodies comprised CD45 and CXCR4.
Serum samples from the systemic candidiasis experiments discussed above were analyzed using known techniques to detect serum levels of ALT, AST, uric acid, and creatinine.

[2] = test system: C. albicans vaginal infection; experiment: Vaginal candidiasis mouse model; type: in vivo, mice; settings: for CD45-positive cells in vaginal tissue (IHC, semi-quantitative) / vaginal histology (H&E): topical into the vagina 5 mg/kg daily for seven days; for CXCR4 expression in the vaginal epithelial mucosa (IHC): treated for 7 days, vs C. albicans infected Model animals
Procedure: Standard histopathological sections stained with hematoxylin and eosin were performed. Immunohistochemistry was performed following the instructions of the antibodies manufacturer (Theiino Scientific, Waltman, MA, USA). The antibodies comprised CD45 and CXCR4. Mice vagina infected with C. albicans was used to evaluate the anticandidal actions of dabigatran. To help in induction of vaginal candidiasis, mice were immunocompromised by injection of 0.1 mg of β-estradiol in 10 μl of sesame oil 72 h and 24 h before vaginal infection for induction of estrus. Infection was done during the estrus phase by intravaginal dropping of the Candida blastoconidia. Each mouse received 3×10^6 blastospores into the vaginal cavity. Uninoculated control mice (the control group) were injected intravaginally with sterile saline. […] All drugs were given topically into the vagina at a dose rate of 5 mg/kg daily for seven days post-infection. On the seventh day, the mice were sacrificed, and blood and vaginal samples were collected. At ×400 magnification, five visual random fields were analyzed. An adopted procedure was used to assess the degree of infection and inflammation (Zhang, J. E., et al., “Feasibility of histological scoring and colony count for evaluating infective severity in mouse vaginal candidiasis,” Experimental Animals, 62(3): pp. 205-10 (2013)). The average scores of five fields were recorded.

[3] = test system: A. fumigatus systemic infection; experiment: Systemic aspergillosis mouse model; type: in vivo, mice; settings: for liver histopathology (H&E): vs infected animals; for heart histopathology (H&E): vs infected group; for serum levels of ALT, AST, uric acid, and creatinine: systemic A. fumigatus infection, day 7, compared with infected nontreated group (combination: also vs noninfected control)
Procedure: as §1, §2, §3
Serum samples from the systemic Aspergillus experiments discussed above were analyzed using known techniques to detect serum levels of ALT, AST, uric acid, and creatinine.

[4] = test system: Syncephalastrurn racemosum RCMB 016001; experiment: In vitro antifungal assay (agar well); type: cell-based, Syncephalastrum racemosum
Procedure: (§4) In vitro studies were performed including a total of 31 fungal strains. The strains were obtained from the American Type Culture Collection (ATCC) or were isolated locally and provided by the fungal research centers at Alazhar and Assiut universities, Egypt. Dabigatran's antifungal activity was tested against 31 fungal strains, as previously described. (Johnson, T. R. and Case, C. L., “Laboratory experiments in microbiology” Pearson/Benjamin Cummings (2004)) The in vitro studies included a total of 31 fungal strains. Fungal strains were separately grown in universal tubes with 20 ml of Sabouraud's dextrose broth for 3-7 days to create inocula for antifungal tests. Bioassays were carried out in 10 cm sterile Petri dishes containing 15 ml Sabouraud's dextrose agar medium and microbial suspension. Using a sterile cork borer, 5 mm diameter cavities were bored in the solidified agar (3 cavities/plate) after the media had hardened. […] Controls were prepared using DMSO and fluconazole. Candida cultures were incubated for 72 hours at 27° C., while other fungal cultures were incubated for up to seven days.

31 fungal strains = experiment: In vitro antifungal assays, all isolates; type: cell-based; settings: over the fungal strains tested
Procedure: as §4

[5] = test system: Geotricurn candidum RCMB 026008; experiment: In vitro antifungal assay (agar well); type: cell-based, Geotricum candidum
Procedure: as §4

[6] = test system: Aspergillus furnigatus (RCMB 002008); experiment: In vitro antifungal assay (agar well); type: cell-based, Aspergillus fumigatus
Procedure: as §4

[7] = test system: Penicillium expansurn RCMB 001001 IMI28169; experiment: In vitro antifungal assay (agar well); type: cell-based, Penicillium expansum
Procedure: as §4

[8] = test system: Penicillium italicum RCMB 001018 (1) IMI 193019; experiment: In vitro antifungal assay (agar well); type: cell-based
Procedure: as §4

[9] = test system: Candida albicans RCMB 005003 (1) ATCC 10231; experiment: In vitro antifungal assay (agar well); type: cell-based; settings: 72 hours at 27° C.
Procedure: as §4

[10] = test system: Candida tropicalis AUMC No. 9158; experiment: In vitro antifungal assay (agar well); type: cell-based; settings: 72 hours at 27° C.
Procedure: as §4

[11] = test system: Aspergillus fumigatus AUMC No. 14358; experiment: In vitro antifungal assay (agar well); type: cell-based
Procedure: as §4

[12] = test system: Penicillium aurantiogriseum IMI 89372; experiment: In vitro antifungal assay (agar well); type: cell-based
Procedure: as §4

[13] = test system: Trichophyton mentagrophytes AUMC No. 14492; experiment: In vitro antifungal assay (agar well); type: cell-based
Procedure: as §4

[14] = test system: Cryptococcus neoformas RCMB 0049001; experiment: In vitro antifungal assay (agar well); type: cell-based
Procedure: as §4

[15] = test system: Aspergillus niger AUMC No. 14408; experiment: In vitro antifungal assay (agar well); type: cell-based
Procedure: as §4

[16] = test system: Sporotlirix schenckii AUMC No. 2739; experiment: In vitro antifungal assay (agar well); type: cell-based
Procedure: as §4

[17] = test system: Candida lipolytica RCMB 005007; experiment: In vitro antifungal assay (agar well); type: cell-based; settings: 72 hours at 27° C.
Procedure: as §4

[18] = test system: Fusarium moniliforme RCMB 001006; experiment: In vitro antifungal assay (agar well); type: cell-based
Procedure: as §4

[19] = test system: Aspergillus ustus AUMC No. 3605; experiment: In vitro antifungal assay (agar well); type: cell-based
Procedure: as §4

[20] = test system: Mucor circillelloides AUMC No. 3704; experiment: In vitro antifungal assay (agar well); type: cell-based
Procedure: as §4

[21] = test system: Candida tropicalis RCMB 005004; experiment: In vitro antifungal assay (agar well); type: cell-based; settings: 72 hours at 27° C.
Procedure: as §4

[22] = test system: Trichophyton rubrum AUMC No. 1804; experiment: In vitro antifungal assay (agar well); type: cell-based
Procedure: as §4

[23] = test system: Aspergillus flavus AUMC No. 1276; experiment: In vitro antifungal assay (agar well); type: cell-based
Procedure: as §4

[24] = test system: Aspergillus terreus AUMC No. 14389; experiment: In vitro antifungal assay (agar well); type: cell-based
Procedure: as §4

[25] = test system: Penicllium marneffeii RCMB 001034; experiment: In vitro antifungal assay (agar well); type: cell-based
Procedure: as §4

[26] = test system: Candida glabrata AUMC No. 9166; experiment: In vitro antifungal assay (agar well); type: cell-based; settings: 72 hours at 27° C.
Procedure: as §4

[27] = test system: Cryptococcus neoformans AUMC No. 2795; experiment: In vitro antifungal assay (agar well); type: cell-based
Procedure: as §4

[28] = test system: Penicillium marneffei AUMC No. 9370; experiment: In vitro antifungal assay (agar well); type: cell-based
Procedure: as §4

[29] = test system: Aspergillus flavus RCMB 002002; experiment: In vitro antifungal assay (agar well); type: cell-based
Procedure: as §4

[30] = test system: Candida alibicans AUMC No. 9160; experiment: In vitro antifungal assay (agar well); type: cell-based; settings: 72 hours at 27° C.
Procedure: as §4

[31] = test system: Aspergillus nidulans AUMC No. 14333; experiment: In vitro antifungal assay (agar well); type: cell-based
Procedure: as §4

[32] = test system: Microsporum canis AUMC No. 14454; experiment: In vitro antifungal assay (agar well); type: cell-based
Procedure: as §4

[33] = immunocompromised mice, C. albicans i.v., 5 mg/kg oral daily for seven days
[34] = immunocompromised mice, A. fumigatus i.v., 5 mg/kg oral daily for seven days

## OC(Cn1cncn1)(Cn1cncn1)c1ccc(F)cc1F [fluconazole]
[1]; [33]
  liver histopathology (H&E): moderate inflammatory cell infiltration in the perivascular regions, mild sinusoidal congestion, and few apoptotic cells
  lung histopathology (H&E): slightly ameliorated the lung damage
[1]
  serum levels of ALT, AST, uric acid, and creatinine: significant decrease in ALT levels only
[2]
  CD45-positive cells in vaginal tissue (IHC, semi-quantitative): Mild to moderate CD45-positive cells spread across the submucosa
  vaginal histology (H&E): modest sub-epithelial inflammatory reaction
  CXCR4 expression in the vaginal epithelial mucosa (IHC): significant decrease
[3]; [34]
  liver histopathology (H&E): Comparable histopathological injuries
  heart histopathology (H&E): comparable
[3]
  serum levels of ALT, AST, uric acid, and creatinine: significant decrease in all markers, except creatinine

## CCCCCCOC(=O)NC(=N)c1ccc(NCc2nc3cc(C(=O)N(CCC(=O)OCC)c4ccccn4)ccc3n2C)cc1 [Dabigatran etexilate]
[4]
  MIC: 8 µg/mL (≈ 12.7 µM)
[1]; [33]
  kidney histopathology (H&E): minor histological differences
  liver histopathology (H&E): typical hepatic architecture with the presence of very few inflammatory cells, moderate degeneration, and no necrosis
  lung histopathology (H&E): substantially improved
[1]; mice, 5 mg/kg oral daily for seven days
  protective effect against systemic C. albicans fungal infection: potent protective effect
[1]
  serum levels of ALT, AST, uric acid, and creatinine: significantly decreased all serum markers
31 fungal strains
  range of MIC values: 8 to 256 µg/mL
[5]
  MIC: 32 µg/mL (≈ 51 µM)
[6]
  MIC: 64 µg/mL (≈ 102 µM)
[7]
  MIC: 128 µg/mL (≈ 204 µM)
[2]; FIGS. 18 and 19, number / migration to lamina propria
  CD4+ T cells in vaginal tissue (IHC, figure legends): dramatically decreased
[2]
  CD45-positive cells in vaginal tissue (IHC, semi-quantitative): Mild to moderate CD45-positive cells spread across the submucosa
  vaginal histology (H&E): considerable reduction in inflammation and injury to the vaginal epithelial mucosa
  CXCR4 expression in the vaginal epithelial mucosa (IHC): significant decrease
[3]; [34]
  kidney histopathology (H&E): modest improvements
  lung histopathology (H&E), inflammation: decreased airspace areas because of red blood cells extravasation
  liver histopathology (H&E): Comparable histopathological injuries
  heart histopathology (H&E): comparable
[3]
  serum levels of ALT, AST, uric acid, and creatinine: significantly decreased all serum markers
[8]
  MIC: 64 µg/mL (≈ 102 µM)
[9]
  MIC: 16 µg/mL (≈ 25.5 µM)
[10]
  MIC: 128 µg/mL (≈ 204 µM)
[11]
  MIC: 128 µg/mL (≈ 204 µM)
[12]
  MIC: 32 µg/mL (≈ 51 µM)
[13]
  MIC: 32 µg/mL (≈ 51 µM)
[14]
  MIC: 16 µg/mL (≈ 25.5 µM)
[15]
  MIC: 128 µg/mL (≈ 204 µM)
[16]
  MIC: 16 µg/mL (≈ 25.5 µM)
[17]
  MIC: 16 µg/mL (≈ 25.5 µM)
[18]
  MIC: 16 µg/mL (≈ 25.5 µM)
[19]
  MIC: 64 µg/mL (≈ 102 µM)
[20]
  MIC: 64 µg/mL (≈ 102 µM)
[21]
  MIC: 128 µg/mL (≈ 204 µM)
[22]
  MIC: 32 µg/mL (≈ 51 µM)
[23]
  MIC: 64 µg/mL (≈ 102 µM)
[24]
  MIC: 128 µg/mL (≈ 204 µM)
[25]
  MIC: 256 µg/mL (≈ 408 µM)
[26]
  MIC: 32 µg/mL (≈ 51 µM)
[27]
  MIC: 32 µg/mL (≈ 51 µM)
[28]
  MIC: 64 µg/mL (≈ 102 µM)
[29]
  MIC: 128 µg/mL (≈ 204 µM)
[30]
  MIC: 32 µg/mL (≈ 51 µM)
[31]
  MIC: 64 µg/mL (≈ 102 µM)
[32]
  MIC: 128 µg/mL (≈ 204 µM)

From patent US11446286B1 (KING FAISAL UNIVERSITY, priority 2022, dated 2022)
